# Results from patent publication US10005754B2, “Form of spirodiclofen, a process for its preparation and use the same” (priority 2015, dated 2018).
# Assay: Comparison of storage stability of suspension concentrates (CIPAC MT 46.3)
# Type: physicochemical
# Method: Samples prepared in Examples 4 and 5 were stored at 54° C. for 1 month, 3 months and 6 months. The procedures are followed according to CIPAC MT 46.3. The concentration of spirodiclofen was measured at the end of each storage time by HPLC. The aggregation was measured by observation. The original concentration of spirodiclofen in each formulation was 25%.
SMILES,storage stability / aggregation after prolong storage (listed as crystalline modification I of spirodiclofen),storage stability / aggregation after prolong storage (listed as spirodiclofen in amorphous state)
"CCC(C)(C)C(=O)OC1=C(c2ccc(Cl)cc2Cl)C(=O)OC12CCCCC2 [Example 2, 3-(2,4-dichlorophenyl)-2-oxo-1-oxaspiro[4.5]dec-3-en-4-yl-2,2-dimethyl butyrate]",significant improvement in its stability without aggregation,
"CCC(C)(C)C(=O)OC1=C(c2ccc(Cl)cc2Cl)C(=O)OC12CCCCC2 [Example 1, 3-(2,4-dichlorophenyl)-2-oxo-1-oxaspiro[4.5]dec-3-en-4-yl-2,2-dimethyl butyrate]",,high tendency of aggregation
